Source: article PMC5344956 (Cancer Chemotherapy and Pharmacology, 2017)

What was measured:
[1] = Metabolite profiling of plasma (HPLC-radiochromatography); format: in vivo, human; settings: % of TRA
Description: For each subject, a 0–24 h pooled plasma sample was prepared according to the scheme outlined in the literature. In addition, several pooled plasma samples across all subjects were prepared at these time points: 5, 10, 12, […], and 48 h, and every 24 h thereafter until 240 h.
All pooled 0–24, 5, 10, 12, and 24 h plasma samples were processed as follows. […] The samples were vortexed for 30 min and centrifuged at 4500g at 4 °C for 6 min. The supernatants were transferred into new polypropylene tubes and kept on ice. The resulting plasma protein pellets were extracted twice to ensure good recovery and the extracts were combined. The combined extracts were loaded onto Ostro sample preparation plates (Waters Corporation, Milford, MA, USA), dried, eluted with 0.2 mL of cold acetonitrile, and all eluates were collected and evaporated under nitrogen (TurboVap LV; Caliper Life Sciences, Hopkinton, MA, USA). The dry residues were reconstituted in 0.1 mL of methanol, and a 0.005-mL aliquot was removed for determination of radioactivity. The remainder of the supernatants were transferred to high-performance liquid chromatography (HPLC) vials and stored at −80 °C until analysis.
Pooled post-24-h plasma samples were extracted using a slightly modified procedure. […] Appropriate volumes of formic acid were added to achieve a final concentration of 1%. Then, the samples were warmed to 37 °C and loaded to preconditioned Oasis HLB cartridges (Waters Corporation, Milford, MA, USA). These columns were then washed with water, dried under vacuum, and eluted with methanol. The eluates were collected and evaporated under nitrogen. The dry residues were reconstituted in 0.1 mL of methanol, and a 0.005-mL aliquot was removed for determination of radioactivity. The remainder of the supernatants were transferred to HPLC vials and stored at −80 °C until analysis.
(§1) A Finnigan Surveyor HPLC system (Thermo Fisher Scientific Inc., San Jose, CA, USA), consisting of an LC pump plus an autosampler and a UV–Vis plus detector, was used mostly for profiling (except the post-24-h plasma samples, which were analyzed using a Dionex HPLC system). A Phenomenex® Gemini® C18, 5-μm, 3.0 × 100-mm column (Phenomenex Inc., Torrance, CA, USA) was used along with a C-12 guard column (4 × 2 mm). LC conditions were as follows: solvent A was 10 mM ammonium bicarbonate in water (pH 10.0) and solvent B was 100% methanol and the flow rate was 0.8 mL/min. The following gradient was employed (B%): 0–5 min (20%), 32 min (42%), 33 min (60%), 55 min (70%), 56–60 min (95%), and 62–70 min (20%).
(§2) Reconstituted solvent extracts (0.050–0.10 mL) of plasma, urine, or feces were injected onto the HPLC column. The post-column eluate was split after UV detection into two streams (0.64 and 0.16 mL/min). The 0.64-mL stream was diverted to a fraction collector (Gilson FX 204; Gilson Medical Electronics, Middleton, WI, USA) to be collected in 96-well plates at 0.16 min/well (ScintiPlates; PerkinElmer Life Sciences, Shelton, CT, USA), and the 0.16-mL stream was directed to the mass spectrometer. The solvent in the 96-well plates was removed at 40 °C using a Genevac evaporator (Genevac, Inc., Stone Ridge, NY, USA).
(§3) The radioactivity counts per minute (CPM) in each well was determined using a MicroBeta scintillation counter (PerkinElmer Life and Analytical Sciences). The resulting CPM vs. time data were processed using Excel (Microsoft Corporation, Seattle, WA, USA). The CPM in each well was background-subtracted (using the average CPM values of the blank region of the HPLC run). Radiochromatographic profiles were obtained by plotting the resulting net CPM values against time after injection. Radioactive peaks in the chromatographic profiles were identified, and the radioactivity in each peak was summed and reported as a percentage of TRA in the HPLC run.

[2] = Plasma pharmacokinetics of TRA, ponatinib and metabolites after a single oral 45-mg [14C]ponatinib dose; settings: for time postdose at which C max / maximal levels in plasma were observed: single oral 45-mg dose, M23 by radiochromatography; for concentration at 144 h: oral
Description: The subject release criterion was defined as follows: the combined urine and fecal radioactivity excretion for two consecutive days should fall below 1% of the dose administered.
Detailed procedures on sample collection, storage, and shipment are described in Online Resource 1. […] Fecal homogenates were prepared by adding water (four times the feces weight) and homogenizing.
TRA analysis was carried out at ABC Laboratories. The radioactivity in plasma (duplicate per time point) and urine samples (triplicate per time point) was quantitated by direct counting in a Beckman LS6000SC or LS6500 liquid scintillation counter (PerkinElmer Life and Analytical Sciences, Boston, MA, USA). Whole blood (duplicate per time point) and fecal homogenate (triplicate per time point) samples were oxidized, and the resultant ^14CO2 was trapped in Carbosorb (Calgon Carbon Corporation, Pittsburgh, PA, USA) in combination with Permafluor, followed by liquid scintillation counting to determine the radioactivity. Individual samples were counted for 5 min for whole blood and fecal matrices, and 10 min for plasma and urine matrices. Predose blood, plasma, urine, and feces samples served as respective control samples to determine and subtract the background radioactivity in the analysis.
M14 was quantitated using a different LC/MS/MS method (Online Resource 2). The pharmacokinetic analysis was carried out using WinNonlin® v6.4 (Pharsight Corp., Mountain View, CA, USA).
Aliquots of 30 µl of calibration standards, quality controls, and incurred plasma samples were transferred into a 96-well plate. Then 150 µl of ice-cold acetonitrile containing 50 ng/ml of AP30376 (d6-AP24600, internal standard) were added. The 96-well plate was vortexed for 10 min and then centrifuged at 4750 rpm for 20 min at 4°C. 100 µl aliquots of the supernatants were transferred into another 96-well plate and the samples were analyzed by liquid chromatography tandem mass spectrometry.

[3] = Metabolite characterization by LC/MS/MS in human plasma, urine, and feces; settings: human plasma, urine, feces; LC/MS/MS
Description: The remaining eluate stream of 0.16 mL/min from the HPLC runs was diverted to the inlet of the mass spectrometer. The samples were analyzed using a heated electrospray ionization probe. Full-scan positive ion MS data were collected using Finnigan Exactive (MS^1) or Q-Exactive (MS^1 and MS^2) mass spectrometers (Thermo Fisher Scientific Inc.) Exact conditions are described in the Online Resource 3.
Finnigan Exactive or Q-Exactive mass spectrometers (Thermo Fisher Scientific Inc., San Jose, CA) were used to collect full scan MS^1 and MS^2 data.

BCR–ABL [4] = biological target: T1, BCR–ABL (Homo sapiens, UniProt P00519+P11274); test: In vitro cellular activity screen against BCR–ABL (data not shown); format: cell-based
T1 sequence (P00519 229-512 limits assumed): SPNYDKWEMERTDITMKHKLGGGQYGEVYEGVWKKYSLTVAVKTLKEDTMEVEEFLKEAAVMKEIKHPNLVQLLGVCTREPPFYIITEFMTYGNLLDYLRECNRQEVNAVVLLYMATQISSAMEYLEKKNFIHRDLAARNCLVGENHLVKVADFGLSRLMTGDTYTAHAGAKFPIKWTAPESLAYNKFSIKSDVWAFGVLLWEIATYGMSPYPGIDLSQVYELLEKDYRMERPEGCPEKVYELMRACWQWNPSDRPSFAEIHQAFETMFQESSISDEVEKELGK

[5] = Metabolite profiling of urine (HPLC-radiochromatography); format: in vivo, human; settings: 0–72 h pool
Description: Predose and 0–72-h urine samples (grand pool of all six subjects) were prepared. Urine samples (5 mL) were centrifuged, the supernatant was transferred to a 15-mL polypropylene tube and placed on ice; the residues were extracted with 1 mL of methanol and the methanol extracts were added to the supernatants. The combined extracts were evaporated under nitrogen and reconstituted in 0.2 mL of methanol. A 0.010-mL aliquot of the reconstituted solution was removed for determination of radioactivity, and the remainder was transferred to HPLC vials and stored at −80 °C.
as §1, §2, §3

BCR–ABL [6] = test: In vitro kinase activity screen against BCR–ABL (data not shown); format: biochemical

Row | % Distribution in plasma ([1]; 0–24 h pooled plasma) | % Distribution in plasma ([1]; 10 h pooled plasma) | % Distribution in plasma ([1]; 12 h pooled plasma) | % Distribution in plasma ([1]; 36 h pooled plasma) | time postdose at which C max / maximal levels in plasma were observed ([2]; human plasma) | concentration at 144 h ([2]; male, human, plasma, 45 mg) | Matrix (in which the metabolite was found) [3] | activity against BCR–ABL, cellular activity screen (BCR–ABL [4]) | activity against BCR–ABL, kinase screen (BCR–ABL [6]) | SMILES | % Distribution in plasma ([1]; 5 h pooled plasma) | % Distribution in plasma ([1]; 48 h pooled plasma) | % Distribution in plasma ([1]; 72 h pooled plasma) | % Distribution in plasma ([1]; 96 h pooled plasma) | further results
1 | 14.9% | 10.8% | 12.8% | 2.4% | 2 to 12 h | < 2.4 nM | P, U | inactive | inactive | Cc1ccc(C(=O)O)cc1C#Cc1cnc2cccnn12 [M14, 3-(imidazo[1,2-b]pyridazin-3-ylethynyl)-4-methylbenzoic acid] | 29.0% | – (“–” values less than 0.5% are not reported) | – (“–” values less than 0.5% are not reported) | – (“–” values less than 0.5% are not reported) | plasma level at 144 h postdose ([2]; human plasma, 144 h postdose): at or below detectable limits; AUC(0-inf) ([2]; male, human, plasma, po, 45 mg): 0.181 µM·h; AUC(0-t) ([2]; male, human, plasma, po, 45 mg): 0.169 µM·h; Cmax ([2]; male, human, plasma, po, 45 mg): 5 nM; Tmax ([2]; male, human, plasma, po, 45 mg): 5 h; half-life ([2]; male, human, plasma, po, 45 mg): 33.7 h; % of total radioactive dose [5]: 0.3%; % Distribution in matrix ([5]; % of urinary TRA): 5.6%
2 | 7% | 3.4% | 2.4% | 3.9% | 36 h | < 3 nM | P, U, F | inactive | inactive | Cc1ccc(C(=O)Nc2ccc(C(=O)O)c(C(F)(F)F)c2)cc1C#Cc1cnc2cccnn12 [M23, 4-(3-(imidazo[1,2-b]pyridazin-3-ylethynyl)-4-methylbenzamido)-2-(trifluoromethyl)benzoic acid] | – (“–” values less than 0.5% are not reported) | 5.4% | 10.7% | 6.0% | –
